This passage reports GI50 and TGI results from PubChem BioAssay (NCI).

SMILES strings stand for the structures. Where “and” joins values, the source holds several entries; their conditions need not be identical. Identical values can stand only once.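 These data come from cells grown in 96-well plates and exposed to compound for 48 hours at five concentrations. The concentration for 50% growth inhibition is given as GI50. The concentration for full growth arrest is given as TGI.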 Where only a bound is given, the exact number is not on record here.

What all share (assay): NCI tumour cell line growth inhibition, 48 h
Experiment [1] deals with 786-0 renal.
The subject of experiment [2] is CCRF-CEM leukemia.
For experiment [3], the system named is HL-60(TB) leukemia.
Experiment [4] concerns HOP-62 NSCLC.
For experiment [5], the system named is NCI-H23 lung.
For experiment [6], the system named is NCI/ADR-RES ovarian.
For experiment [7], the system named is RXF 393 renal.
Experiment [8] concerns UACC-62 melanoma.

`C/C(=N\NC(=S)N1CCN(c2ccccn2)CC1)c1ncccn1`: the GI50 in experiment [1] is 0.0742 µM; in experiment [4] it was 0.0865 µM; in experiment [5] it was less than 0.016 µM; in experiment [7], 1.05 µM; in experiment [8] it was 0.057 µM. Besides, the TGI was 15.7 µM in experiment [1]; 2.06 µM and 11.4 µM in experiment [2]; 0.0274 µM and 0.103 µM in experiment [3]; 2.09 µM and 7.05 µM in experiment [4]; 4.81 µM and 19.3 µM in experiment [5]; 3.95 µM and 0.403 µM in experiment [6]. Further, the TGI in experiment [7] was 4.51 µM and 15.5 µM; in experiment [8], 0.58 µM and 4.19 µM.
Consider `c1ccc(C2CCCCC2)c(OCCCCCN2CCNCC2)c1`, for which the GI50 in experiment [1] was 1.7 µM; in experiment [2] it was 2.4 µM; in experiment [3], 1.72 µM; in experiment [4], 10.4 µM; in experiment [5], 5.72 µM; in experiment [6], 7.07 µM. Further, the GI50 in experiment [7] is 1.77 µM; in experiment [8], 1.87 µM. In addition, the TGI was 4.27 µM in experiment [1]; 7.9 µM in experiment [2]; 3.94 µM in experiment [3]; 28.5 µM in experiment [4]; 22.2 µM in experiment [5]; 29.2 µM in experiment [6]. The TGI in experiment [7] turned out to be 4.02 µM; in experiment [8], 3.62 µM.
For `COC1=C(OC)C(=O)C(CCCCCCCCCCO)=C(C)C1=O`, the GI50 in experiment [1] is 9.61 µM; in experiment [2], 3.15 µM; in experiment [3], 3.71 µM; in experiment [4] it was 16 µM; in experiment [5], 3.17 µM; in experiment [6] it was 3.34 µM. For the same molecule, the GI50 in experiment [7] is 10.1 µM; in experiment [8] it was 7.57 µM. For the same molecule, the TGI worked out at 21.7 µM in experiment [1]; 20.4 µM in experiment [2]; 11.5 µM in experiment [3]; 29.5 µM in experiment [4]; 16.6 µM in experiment [5]; 13 µM in experiment [6]. The TGI in experiment [7] was determined as 23.9 µM; in experiment [8], 21.4 µM.
For `COc1ccc(-c2[nH]c3ccccc3c2/C=C(\C#N)S(=O)(=O)c2ccccc2)cc1`, the GI50 was 0.844 µM in experiment [1]; 0.807 µM in experiment [2]; 0.287 µM in experiment [3]; 0.958 µM in experiment [4]; 0.769 µM in experiment [5]; 0.427 µM in experiment [6]. Further, the GI50 was 1.02 µM in experiment [7] and 0.597 µM in experiment [8]. Moreover, the TGI is more than 38.3 µM in experiment [1]; 1.5 µM in experiment [3]; more than 35.3 µM in experiment [4]; more than 61.1 µM in experiment [5]; more than 25.8 µM in experiment [6]; more than 100 µM in experiment [7]. Besides, the TGI in experiment [8] stood at 16.3 µM.
On to `N#Cc1c(NC(=O)c2ccccc2F)sc2c1CCCC2`, for which the GI50 in experiment [1] was more than 25 µM; in experiment [2], more than 25 µM; in experiment [3], more than 25 µM; in experiment [4], more than 25 µM; in experiment [5], more than 25 µM; in experiment [6], 11.5 µM. Moreover, the GI50 is more than 25 µM in experiment [7] and 18.1 µM in experiment [8]. The TGI in experiment [1], in experiment [2], in experiment [3], in experiment [4], in experiment [5] and in experiment [6] was more than 25 µM throughout. Further, the TGI in experiment [7] and in experiment [8] was more than 25 µM throughout.
As to `COc1ccc2c(c1)C(=O)c1c-2c(=O)n(CCCN(C)C)c2cc(OC)c(OC)cc12`, the GI50 is 6.93 µM in experiment [1]; 0.05 µM in experiment [2]; 10.4 µM in experiment [3]; 0.682 µM in experiment [4]; 6.48 µM in experiment [5]; 5.93 µM in experiment [6]. For the same molecule, the GI50 is 11.2 µM in experiment [7] and more than 100 µM in experiment [8]. Also, the TGI in experiment [1] was 20.5 µM; in experiment [2], 12.2 µM; in experiment [3], 31.7 µM; in experiment [4], more than 100 µM; in experiment [5], 24.5 µM; in experiment [6], 23.6 µM. Further, the TGI is 23.6 µM in experiment [7] and more than 100 µM in experiment [8].
Take `CC1(C)[C@H](O)[C@H](F)C[C@@]2(C)Oc3ccc(C(=O)Nc4ccc5c(c4)NC(=O)C54CCN(CCCCC#N)CC4)cc3C[C@H]12`: the GI50 in experiment [1] was 0.0267 µM; in experiment [2], 0.00949 µM; in experiment [3], 0.0583 µM; in experiment [4], 1.28 µM and 1.13 µM; in experiment [5] it was 2.44 µM and 2.29 µM; in experiment [6] it was 42.9 µM. Besides, the GI50 in experiment [7] was 0.00279 µM; in experiment [8] it was 0.0308 µM. Besides, the TGI in experiment [1] is 1.8 µM and 4.76 µM; in experiment [2], 5.98 µM and 6.98 µM; in experiment [3], 6.04 µM; in experiment [4] it was 5.61 µM; in experiment [5] it was 17.8 µM; in experiment [6], more than 100 µM. In addition, the TGI in experiment [8] was 1.13 µM and 1.12 µM.
Turning to `CC1=NNC(=S)NCCCN2CCN(CCCNC(=S)NN=C(C)C=NNC(=S)NCCCN3CCN(CCCNC(=S)NN=C1)CC3)CC2`, the TGI in experiment [1], in experiment [2], in experiment [3], in experiment [4], in experiment [5] and in experiment [6] was more than 100 µM throughout. The TGI in experiment [7] and in experiment [8] was more than 100 µM throughout.
On to `O=[N+]([O-])c1cc(Cc2cc([N+](=O)[O-])c3cccnc3c2O)c(O)c2ncccc12`, for which the TGI in experiment [1] is more than 54.3 µM; in experiment [2], 6.39 µM; in experiment [3], 5.35 µM; in experiment [4] it was 42.4 µM; in experiment [5], more than 100 µM; in experiment [6], 54.1 µM. The TGI in experiment [7] came out at 18 µM; in experiment [8], 27.6 µM.
Consider `COc1ccc(C2CC(c3ccc(N(C)C)cc3)=NN2c2ccc(S(N)(=O)=O)cc2)cc1` (centres undefined), for which the GI50 was 3.79 µM in experiment [1]; 5.24 µM in experiment [2]; 3.99 µM in experiment [3]; 3.96 µM in experiment [4]; 3.13 µM in experiment [5]; 4.73 µM in experiment [6]. Further, the GI50 in experiment [7] was 2.56 µM; in experiment [8], 5.85 µM. Besides, the TGI was 20.6 µM in experiment [1]; more than 100 µM in experiment [2]; 86.3 µM in experiment [3]; more than 100 µM in experiment [4]; more than 100 µM in experiment [5]; more than 100 µM in experiment [6]. For the same molecule, the TGI is 7.52 µM in experiment [7] and more than 100 µM in experiment [8].
